Read-outs that look alike come from different tables or passages of the source. Where a SMILES comes first, the peptide text is derived from it. Where no end group is shown, it is not given here. [ ]: non-standard residue; d: D form. The star is where a group is joined. 5FAM = O=C1OC2(c3ccc(O)cc3Oc3cc(O)ccc32)c2ccc(C(=O)*)cc21; Abu(3-Me-diazirin-3-yl) = CC1(CC[C@H](N)C(=O)O)N=N1
Legend:
P. falciparum [1] = conditions: read-out: EC50, P. falciparum reinvasion / cell viability; serial dilution of peptides in triplicate, egress in presence of peptide, flow cytometry at trophozoite stage, n = 3
[2] = tested on: P. falciparum late schizonts; conditions: 10 μM peptide, 3 h
[3] = tested on: P. falciparum (3D7 strain); conditions: for uptake of polyarginines compared by chain length: flow cytometry (Figure 2c)
PfMTIPΔ60 [4] = biological target: T1, PfMTIPΔ60 (Plasmodium falciparum, UniProt Q8I4W8); assay: biochemical; type: binding
T1 construct: PfMTIPΔ60 stocks were recombinantly expressed in E. coli BL21; made in house; host or cells: E. coli BL21

PfMTIPΔ60 [5] = biological target: T1, PfMTIPΔ60; assay: biochemical; type: binding; conditions: for n (ITC stoichiometry) / ΔH (ITC) / ΔS (ITC): 303 K, n = 2
P. falciparum [6] = assay: microbe, parasite or virus in culture; conditions: Plasmodium falciparum, read-out: EC50, P. falciparum reinvasion control curve
[7] = 1% TX-100, densitometry, 2 µL loading
[8] = 1% TX-100, densitometry, 5 µL loading
[9] = 1% TX-100, densitometry, average of 2 µL and 5 µL loadings
[10] = densitometry, average of 2 µL and 5 µL loadings

CC[C@H](C)[C@H](NC(=O)[C@H](Cc1c[nH]cn1)NC(=O)[C@H](C)NC(=O)[C@H](CCC(N)=O)NC(=O)[C@@H](NC(=O)[C@H](CCCNC(=N)N)NC(=O)[C@H](CC(C)C)NC(=O)[C@H](CC(C)C)NC(=O)[C@H](CO)NC(=O)[C@@H]1CCCN1C(=O)[C@@H](NC(=O)[C@H](CC(N)=O)NC(=O)[C@H](CCCNC(=N)N)NC(=O)CNC(=O)c1ccc2c(c1)C(=O)OC21c2ccc(O)cc2Oc2cc(O)ccc21)[C@@H](C)CC)C(C)C)C(=O)N[C@@H](CCCNC(=N)N)C(=O)N[C@@H](CCCNC(=N)N)C(=O)N[C@@H](CCCNC(=N)N)C(=O)N[C@@H](CCSC)C(=O)N[C@H](C(N)=O)C(C)C [F-ArgMy1] (5FAM-GRNIPSLLRVQAHIRRRMV-NH2)
EC50 (P. falciparum [1]): ~160000 nM | In vivo Conc, TX I (insoluble) [2, 7]: 0.06 µM | In vivo Conc, TX S (soluble) [2, 7]: 2.94 µM | In vivo Conc, TX I (insoluble) [2, 8]: 0.39 µM | In vivo Conc, TX S (soluble) [2, 8]: 7.17 µM | In vivo Conc, TX I (insoluble), Av. [2, 9]: 0.22 µM | In vivo Conc, TX S (soluble), Av. [2, 9]: 5.06 µM | In vivo Conc, SLO S (soluble) ([2]; densitometry, 2 µL loading): 2.03 µM | In vivo Conc, SLO I (insoluble) ([2]; densitometry, 5 µL loading): 0.93 µM | In vivo Conc, SLO S (soluble) ([2]; densitometry, 5 µL loading): 3.01 µM | In vivo Conc, SLO I (insoluble), Av. [2, 10]: 0.51 µM | In vivo Conc, SLO S (soluble), Av. [2, 10]: 2.52 µM | In vivo Conc, SLO I (insoluble) ([2]; late schizonts, densitometry of in-gel fluorescence, 2 µL loading): 0.10 µM | fold improvement in uptake compared to F-My1 ([3]; Pf3D7 early schizonts, flow cytometry (Figure 2d)): 2 fold | permeability, share of all parasitized cells ([3]; midstage schizonts, flow cytometry): up to 50% | Kd (PfMTIPΔ60 [4]): 3.9 nM

CC[C@H](C)[C@H](NC(=O)[C@H](Cc1c[nH]cn1)NC(=O)[C@H](CCCNC(=N)N)NC(=O)[C@H](CCC(N)=O)NC(=O)[C@@H](NC(=O)[C@H](C)NC(=O)[C@H](CC(C)C)NC(=O)[C@H](CCCNC(=N)N)NC(=O)[C@H](CO)NC(=O)[C@@H]1CCCN1C(=O)[C@@H](NC(=O)[C@H](CC(N)=O)NC(=O)[C@H](CC(C)C)NC(=O)CNC(=O)c1ccc2c(c1)C(=O)OC21c2ccc(O)cc2Oc2cc(O)ccc21)[C@@H](C)CC)C(C)C)C(=O)N[C@@H](CCCNC(=N)N)C(=O)N[C@@H](CCCNC(=N)N)C(=O)N[C@@H](CCCNC(=N)N)C(=O)N[C@@H](CCSC)C(=O)N[C@H](C(N)=O)C(C)C [F-ArgMy2] (5FAM-GLNIPSRLAVQRHIRRRMV-NH2)
Kd (PfMTIPΔ60 [4]): 4220 nM

CC[C@H](C)[C@H](NC(=O)[C@H](Cc1c[nH]cn1)NC(=O)[C@H](C)NC(=O)[C@H](CCC(N)=O)NC(=O)[C@@H](NC(=O)[C@H](CCCNC(=N)N)NC(=O)[C@H](CC(C)C)NC(=O)[C@H](CC(C)C)NC(=O)[C@H](CO)NC(=O)[C@@H]1CCCN1C(=O)[C@@H](NC(=O)[C@H](CC(N)=O)NC(=O)[C@H](CCCCN)NC(=O)CNC(=O)c1ccc2c(c1)C(=O)OC21c2ccc(O)cc2Oc2cc(O)ccc21)[C@@H](C)CC)C(C)C)C(=O)N[C@@H](CCCNC(=N)N)C(=O)N[C@@H](CCCCN)C(=O)N[C@@H](CCCCN)C(=O)N[C@@H](CCSC)C(=O)N[C@H](C(N)=O)C(C)C [F-My1] (5FAM-GKNIPSLLRVQAHIRKKMV-NH2)
EC50 (P. falciparum [1]): ~160000 nM | Kd (PfMTIPΔ60 [5]): 57.1 ± 13 nM | n (ITC stoichiometry) (PfMTIPΔ60 [5]): 0.91 ± 0.01 | ΔH (ITC) (PfMTIPΔ60 [5]): -17.6 ± 0.22 kcal/mol | ΔS (ITC) (PfMTIPΔ60 [5]): -104 J/K.mol

CC[C@H](C)[C@H](NC(=O)[C@H](Cc1c[nH]cn1)NC(=O)[C@H](C)NC(=O)[C@H](CCC(N)=O)NC(=O)[C@@H](NC(=O)[C@H](CCCNC(=N)N)NC(=O)[C@H](CC(C)C)NC(=O)[C@H](CC(C)C)NC(=O)[C@H](CO)NC(=O)[C@@H]1CCCN1C(=O)[C@@H](NC(=O)[C@H](CC(N)=O)NC(=O)[C@H](CCCCN)NC(=O)CNC(=O)[C@H](CCC1(C)N=N1)NC(=O)c1ccc2c(c1)C(=O)OC21c2ccc(O)cc2Oc2cc(O)ccc21)[C@@H](C)CC)C(C)C)C(=O)N[C@@H](CCCNC(=N)N)C(=O)N[C@@H](CCCCN)C(=O)N[C@@H](CCCCN)C(=O)N[C@@H](CCSC)C(=O)N[C@H](C(N)=O)C(C)C [F/D-My1] (5FAM-[Abu(3-Me-diazirin-3-yl)]GKNIPSLLRVQAHIRKKMV-NH2)
Kd (PfMTIPΔ60 [4]): 3.4 nM

C[C@H]1[C@@H](O)O[C@@H]2O[C@@]3(C)CC[C@H]4[C@H](C)CC[C@@H]1[C@@]24OO3 [dihydroartemisin, Dihydroartemisinin]
EC50 (P. falciparum [6]): 10 nM

FAM GRRRRRR -NH2 [F-Arg6]
uptake of polyarginines compared by chain length ([3]; Pf3D7 early schizonts): significant improvement over F-Arg4

FAM GRRRRRRR -NH2 [F-Arg7]
uptake of polyarginines compared by chain length ([3]; Pf3D7 early schizonts): significantly greater than F-Arg6

FAM GRRRRRRRR -NH2 [F-Arg8]
uptake compared with F-My1 ([3]; Pf3D7 early schizonts ca. 35 h PI, flow cytometry, unpaired t test (Figure 2b)): significantly greater permeability over F-My1 | uptake of polyarginines compared by chain length ([3]; Pf3D7 early schizonts): significantly greater than F-Arg6

KNIPSLLRVQAHIRKKMV-NH2 (C-terminus assumed) [My1]
n (ITC stoichiometry) (PfMTIPΔ60 [5]): 1.06 ± 0.01 | ΔH (ITC) (PfMTIPΔ60 [5]): -15.9 ± 0.12 kcal/mol | ΔS (ITC) (PfMTIPΔ60 [5]): -85.9 J/K.mol

Reference: publication PMC7309260, “Peptide Probes for Plasmodium falciparum MyoA Tail Interacting Protein (MTIP): Exploring the Druggability of the Malaria Parasite Motor Complex” (ACS Chemical Biology, 2020)
